# According to US11498929B2, “Chromenopyrimidine derivatives as phosphatidylinsitol phosphate kinase inhibitors” (Hibercell, Inc., priority 2019, dated 2022):
# Legend:
# PIP4K2A = target: T1, PIP4K2A (Homo sapiens, UniProt P48426); test: Kinase Assay - PIP4K2 A (inhibition of PIP4K2 A kinase assay); assay type: biochemical; details: compounds listed under IC50 bin headings
# T1 construct: GST; made in house; host or cells: E. coli
# T1 sequence (P48426 1-406): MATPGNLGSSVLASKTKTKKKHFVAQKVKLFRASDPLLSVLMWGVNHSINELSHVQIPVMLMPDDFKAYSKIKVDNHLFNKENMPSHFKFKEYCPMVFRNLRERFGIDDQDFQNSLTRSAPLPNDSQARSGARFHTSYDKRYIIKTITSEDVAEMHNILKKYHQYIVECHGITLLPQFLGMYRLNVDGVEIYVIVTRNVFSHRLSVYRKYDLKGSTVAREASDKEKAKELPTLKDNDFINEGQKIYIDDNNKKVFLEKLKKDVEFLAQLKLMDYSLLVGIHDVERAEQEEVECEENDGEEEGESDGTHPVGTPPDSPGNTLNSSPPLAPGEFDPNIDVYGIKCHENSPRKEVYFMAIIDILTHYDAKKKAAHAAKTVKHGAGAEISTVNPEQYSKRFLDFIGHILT
# Procedure: Dilution series of the compounds were prepared in DMSO at 100 times the final assay concentration (n1=n0/3 in 10 points). The compounds were further diluted to three times the assay concentration in assay buffer (20 mM MOPS pH 7.2, 25 mM magnesium chloride, 0.005% Tween 20). 6 μL of the diluted compounds were added to a 384 well assay plate followed by 9 μL of a mix consisting of 4 nM PIP4K2A (full length protein, SignalChem) and 100 μM PI(5)P diC8 (Tebu-Bio). Enzyme and compounds were pre-incubated at room temperature for 15 minutes.
# Then 3 μL of a solution containing 60 μM ATP (Promega) in assay buffer was added to the wells containing compound and enzyme and mixing was performed by pipetting several times. The reaction was incubated at room temperature for 1 h. Then 18 μL of ADP-Glo™ Reagent (Promega) was added to stop the kinase reaction and deplete the unconsumed ATP, mixing was performed by pipetting several times. The plate was incubated at room temperature for 40 minutes before addition of 36 μL of Kinase Detection Reagent (Promega) to convert ADP to ATP and introduce luciferase and luciferin to detect ATP. The reaction was incubated at room temperature for 40 minutes before the luminescence was measured in a in a Victor 3V 1420 multilabel counter (Perkin Elmer).
# Percent inhibition of the compounds as compared to dimethyl sulfoxide treated control samples was calculated. Compound concentration versus percent inhibition were fitted to generate IC50 values. […]
# [1] = target: T2, PIP4K2 B (GST-tagged PIP4KtypeIIB) (Homo sapiens, UniProt P78356); test: Kinase Assay - PIP4K2 B (inhibition of PIP4K2 B kinase assay); assay type: biochemical; details: compounds listed under IC50 bin headings
# T2 construct: GST; made in house; host or cells: E. coli
# T2 sequence (P78356 1-416): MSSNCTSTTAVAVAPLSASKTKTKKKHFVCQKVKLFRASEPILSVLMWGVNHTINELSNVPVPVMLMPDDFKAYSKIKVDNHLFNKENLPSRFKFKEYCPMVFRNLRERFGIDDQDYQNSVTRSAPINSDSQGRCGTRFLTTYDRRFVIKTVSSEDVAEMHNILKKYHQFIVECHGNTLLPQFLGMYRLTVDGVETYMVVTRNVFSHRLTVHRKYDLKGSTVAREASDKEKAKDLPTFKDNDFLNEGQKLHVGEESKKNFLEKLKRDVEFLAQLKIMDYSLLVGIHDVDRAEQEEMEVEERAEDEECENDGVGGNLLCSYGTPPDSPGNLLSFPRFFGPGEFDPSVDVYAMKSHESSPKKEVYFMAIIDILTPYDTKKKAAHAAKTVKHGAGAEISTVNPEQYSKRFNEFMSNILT
# Source text: GST tagged PIP4KtypeIIA and B enzymes were overexpressed in E. Coli and purified to >80% homogeneity. Phosphatidyl inositol-5-phosphate (PI5P, Cat. #850152, Avanti Polar Lipids Inc.) was used as the lipid substrate and phosphatidyl ethanolamine (DOPE 18:1, Cat. #850725, Avanti Polar Lipids Inc.) was used as the carrier lipid for assays. Ultrapure ATP and GTP was purchased from Bellbrooke Labs. ADP Glo reagents were obtained from Promega. Transcreener FI reagent was obtained from Bellbrooke labs.
# GST-tagged PIP4KtypeIIB (3.4 uL, 2.77 mg/mL) was diluted to 5 mL using HNE buffer to yield 5× enzyme stock (25 nM)
# Lipid Preparation: In a 10 mL pyrex glass vial, 1 ug of PI5P and 1 ug of DOPE were suspended in 2.5 mL of HEPES buffer mix and 2.5 mL of H:E buffer. The contents were mixed and sonicated for 3 min to yield a translucent lipid stock.
# Compound Preparation: Compounds were stored as 5 mM stocks in neat DMSO as room temperature in glass vials. 5 mM stocks were diluted to 2 mM and then serially diluted (3×) in neat DMSO in 96 well polypropylene plates. From the serially diluted stocks, 3 uL was delivered into 250 uL of 25% DMSO (in water) to generate 5× compound stocks. Typically, the highest compound conc. was 24 uM.
# The assay volume was kept at 25 uL. To each well of the reaction plate, 10 uL of lipid stock (1:1 ratio PI5P:DOPE) was delivered. This was followed by the addition of 5 uL of compound in 25% DMSO. Then, to each well, 5 uL of 25 nM (5×) typeIIB enzyme was delivered. The contents were mixed well and incubated for 1 h at 27 C. After 1 h, reaction was initiated by adding 5 uL of 500 uM GTP and the contents were mixed well with a multi-channel pipetteman. The final concentration of the reagents are as follows: 50 mM HEPES, pH 7.3, 10 mM MgCl2, 20 mM NaCl, 0.01% v/v triton-X100, 5% DMSO, 100 uM GTP, 80 uM (2 ug) PI5P, 2 ug DOPE, and 5 nM PIP4KIIB Typically, the highest conc. of compounds was 4.8 uM and the lowest conc. was 0.
# After 2 h, the reaction was quenched by adding 25 uL of transcreener FI reagent. The contents were incubated at RT for 1 h and the Fluorescence (Ex:584 Em: 623) was read using Molecular Devices Paradigm plate reader. […] The blanks were averaged and subtracted from all other wells. Using a calibration curve, RFU was converted to uM GDP (product). IC50 was calculated by plotting the residual activity (expressed as % No inhibitor control) vs. log [Inh. conc.]
# MOLM-16 = MOLM-16 EC50 assay; assay type: cell-based; details: MOLM16
Compound,IC50 (PIP4K2A),IC50 [1],EC50 (MOLM-16)
"CC(=O)OC1(C(=O)N2CCOc3ncc(Nc4ncc5c(n4)C(C)(C)Oc4cc(-n6nncc6C)ccc4-5)cc32)CC1 [Compound 16, 1-(7-{[5,5-dimethyl-8-(5-methyl-1H-1,2,3-triazol-1-yl)-5H-chromeno[3,4-d]pyrimidin-3-yl]amino}-1H,2H,3H-pyrido[2,3-b][1,4]oxazine-1-carbonyl)cyclopropyl acetate]",≤ 1 nM,1 to 10 nM,> 1000 nM
"CCN(CC)CCN1CCOc2ncc(Nc3ncc4c(n3)C(C)(C)Oc3cc(N5CCCC5=O)ccc3-4)cc21 [Compound 36, 1-[3-({1-[2-(diethylamino)ethyl]-1H,2H,3H-pyrido[2,3-b][1,4]oxazin-7-yl}amino)-5,5-dimethyl-5H-chromeno[3,4-d]pyrimidin-8-yl]pyrrolidin-2-one]",100 to 1000 nM,> 1000 nM,10 to 100 nM
"CC(=O)OC(C)(C)C(=O)N1CCOc2ncc(Nc3ncc4c(n3)C(C)(C)Oc3cc(-c5nocc5C)ccc3-4)cc21 [Compound 29, 1-(7-{[5,5-dimethyl-8-(4-methyl-1,2-oxazol-3-yl)-5H-chromeno[3,4-d]pyrimidin-3-yl]amino}-1H,2H,3H-pyrido[2,3-b][1,4]oxazin-1-yl)-2-methyl-1-oxopropan-2-yl acetate]",1 to 10 nM,10 to 100 nM,> 1000 nM
"CCN1CCN(Cc2cncc(Nc3ncc4c(n3)C(C)(C)Oc3cc(-n5nncc5C)ccc3-4)c2)CC1 [Compound 17, N-[5,5-dimethyl-8-(5-methyl-1H-1,2,3-triazol-1-yl)-5H-chromeno[3,4-d]pyrimidin-3-yl]-5-[(4-ethylpiperazin-1-yl)methyl]pyridin-3-amine]",≤ 1 nM,1 to 10 nM,100 to 1000 nM
"CN(C)C1CCN(c2cncc(Nc3ncc4c(n3)C(C)(C)Oc3cc(N5CCCC5=O)ccc3-4)c2)CC1 [Compound 25, 1-[3-({5-[4-(dimethylamino)piperidin-1-yl]pyridin-3-yl}amino)-5,5-dimethyl-5H-chromeno[3,4-d]pyrimidin-8-yl]pyrrolidin-2-one]",1 to 10 nM,10 to 100 nM,10 to 100 nM
"CN1CCOc2ncc(Nc3ncc4c(n3)C(C)(C)Oc3cc(N5C(=O)CCC56CC6)ccc3-4)cc21 [Compound 26, 4-[5,5-dimethyl-3-({1-methyl-1H,2H,3H-pyrido[2,3-b][1,4]oxazin-7-yl}amino)-5H-chromeno[3,4-d]pyrimidin-8-yl]-4-azaspiro[2.4]heptan-5-one]",1 to 10 nM,1 to 10 nM,100 to 1000 nM
"Cc1cnnn1-c1ccc2c(c1)OC(C)(C)c1nc(Nc3cnc4c(c3)N(CC3COC3)CCO4)ncc1-2 [Compound 13, 5,5-dimethyl-8-(5-methyl-1H-1,2,3-triazol-1-yl)-N-{1-[(oxetan-3-yl)methyl]-1H,2H,3H-pyrido[2,3-b][1,4]oxazin-7-yl}-5H-chromeno[3,4-d]pyrimidin-3-amine]",≤ 1 nM,1 to 10 nM,100 to 1000 nM
